The results in this text go back to patent US10845368B2, “Nanoparticles for mitochondrial trafficking of agents” (UNIVERSITY OF GEORGIA RESEARCH FOUNDATION, INC., priority 2012, dated 2020).

The structures appear in SMILES notation.

One data set concerns 3T3-L1 cells. As to conditions: 3T3-L1, 100 μM.
A further data set relates to HeLa cells. Put plainly: MTT cytotoxicity assay. In kind it is cell-based, human. From the text: FIGS. 11A-C are bar graphs showing cytotoxicity profiles of targeted LND nanoparticles, nontargeted LND nanoparticles, free LND (A); targeted α-TOS nanoparticles, nontargeted α-TOS nanoparticles, free α-TOS in HeLa cells (B); and empty targeted nanoparticles, and empty nontargeted nanoparticles in HeLa cells (C).
The selectivity and efficiency of LND and α-TOS against cancer cells depend on their ability to target the mitochondria of cells. To evaluate the efficacy of our targeted nanoparticles in delivering LND and α-TOS, we performed MTT assays in HeLa cells. […] Preferential localization in the target organelle accounts for the enhanced cytotoxicity of both LND and α-TOS encapsulated in the targeted nanoparticles.

Description for 3T3-L1 cells: To examine whether encapsulation of 2,4-DNP in targeted nanoparticles can suppress the induced differentiation of 3T3-L1 preadipocytes at a low dosage that is insufficient to exert cytotoxicity, we continuously exposed 3T3-L1 cells to 1 μM, 4 μM, 25 μM, and 100 μM targeted 2,4-DNP nanoparticles (FIGS. 12A-D and 13) during the differentiation period for 7 d, and evaluated cell viability and intracellular lipid accumulation. Nontargeted 2,4-DNP nanoparticles and free 2,4-DNP were used as controls.

For the compound `O=[N+]([O-])c1ccc(O)c([N+](=O)[O-])c1` [Free 2,4-DNP, 2,4-dinitrophenol], the cellular toxicity entry with 3T3-L1 cells is on record as “demonstrated cellular toxicity”. In the case of `Cc1c(C)c2c(c(C)c1OC(=O)CCC(=O)O)CC[C@@](C)(CCC[C@H](C)CCC[C@H](C)CCCC(C)C)O2` [free α-TOS, α-tocopheryl succinate], 381 ± 5 nM corresponded to half-maximal inhibition in the data set with HeLa cells (IC50).

What is called IC50 is the midpoint of a concentration-inhibition curve.
